Measured values published in US4269971A, “Antibiotic TM-531” (Taisho Pharmaceutical Co., Ltd., priority 1978, dated 1981).

Tests used:
[1] = tested on: Aspergillus niger NHL 5088; test: Antimicrobial activity (MIC), agar medium; assay type: cell-based; conditions: potato dextrose agar
Procedure: (§1) The antimicrobial activity of antibiotic TM-531 was determined in terms of the minimum inhibitory concentration (MIC) using a heart infusion agar medium for the determination of activity on bacteria and a potato dextrose agar medium for the determination of activity on fungi and yeast.

Bacillus licheniformis = test: Antimicrobial activity (MIC), agar medium; assay type: cell-based; conditions: heart infusion agar
Procedure: as §1

[2] = tested on: Bacillus subtilis ATCC 6633; test: Antimicrobial activity (MIC), agar medium; assay type: cell-based; conditions: heart infusion agar
Procedure: as §1

Candida albicans = test: Antimicrobial activity (MIC), agar medium; assay type: cell-based; conditions: potato dextrose agar
Procedure: as §1

Corynebacterium xerosis = test: Antimicrobial activity (MIC), agar medium; assay type: cell-based; conditions: heart infusion agar
Procedure: as §1

[3] = tested on: Escherichia coli NIHJ C-2; test: Antimicrobial activity (MIC), agar medium; assay type: cell-based; conditions: heart infusion agar
Procedure: as §1

Micrococcus luteus NIHJ = test: Antimicrobial activity (MIC), agar medium; assay type: cell-based; conditions: heart infusion agar
Procedure: as §1

[4] = tested on: Penicillium citrinum IAM 7003; test: Antimicrobial activity (MIC), agar medium; assay type: cell-based; conditions: potato dextrose agar
Procedure: as §1

Proteus vulgaris HX 19 = test: Antimicrobial activity (MIC), agar medium; assay type: cell-based; conditions: heart infusion agar
Procedure: as §1

[5] = tested on: Pseudomonas aeruginosa IID 1052; test: Antimicrobial activity (MIC), agar medium; assay type: cell-based; conditions: heart infusion agar
Procedure: as §1

Saccharomyces cerevisiae = test: Antimicrobial activity (MIC), agar medium; assay type: cell-based; conditions: potato dextrose agar
Procedure: as §1

[6] = tested on: Staphylococcus aureus FDA 209 P; test: Antimicrobial activity (MIC), agar medium; assay type: cell-based; conditions: heart infusion agar
Procedure: as §1

[7] = tested on: Staphylococcus aureus Smith; test: Antimicrobial activity (MIC), agar medium; assay type: cell-based; conditions: heart infusion agar
Procedure: as §1

[8] = tested on: Staphylococcus aureus TRP-23; test: Antimicrobial activity (MIC), agar medium; assay type: cell-based; conditions: heart infusion agar
Procedure: as §1

[9] = tested on: Staphylococcus epidermidis TPR-25; test: Antimicrobial activity (MIC), agar medium; assay type: cell-based; conditions: heart infusion agar
Procedure: as §1

[10] = tested on: Staphylococcus epidermidis TRP-13; test: Antimicrobial activity (MIC), agar medium; assay type: cell-based; conditions: heart infusion agar
Procedure: as §1

[11] = tested on: Streptococcus faecalis ATCC 8043; test: Antimicrobial activity (MIC), agar medium; assay type: cell-based; conditions: heart infusion agar
Procedure: as §1

Trichophyton asteroides = test: Antimicrobial activity (MIC), agar medium; assay type: cell-based; conditions: potato dextrose agar
Procedure: as §1

Glomerella cingulata = test: Growth inhibitory activity on plant pathogenic microorganisms (colony diameter); assay type: cell-based; conditions: 100 mcg/ml, 28° C., 7 days, control medium 27.3 mm
Piricularia sasakii = assay type: cell-based; conditions: 28° C., 7 days
Gibberella fujikuroi = test: Growth inhibitory activity on plant pathogenic microorganisms (colony diameter); assay type: cell-based; conditions: 100 mcg/ml, 28° C., 7 days, control medium 27.6 mm
Botrytis cinerea = test: as above; assay type: cell-based; conditions: 100 mcg/ml, 28° C., 7 days, control medium 47.7 mm
[12] = tested on: Helminthosporium sigmoldeum; test: as above; assay type: cell-based; conditions: 100 mcg/ml, 28° C., 7 days, control medium 22.8 mm
Toxoplasma tachyzoites = test: Antitoxoplasma activity in infected mice macrophage culture; assay type: cell-based, Toxoplasma (in mice macrophage); conditions: 0.1 ppm, 37° C., 48 hours
Procedure: (§2) A mice macrophage cultured on a TC-199 medium containing 20% of calf serum was infected with Toxoplasma tachyzoites (hereinafter referred to as "T. tachyzoites") and cultured at 37° C. for about 1 hour. Thereafter, the resulting culture was washed with a phosphate buffer having pH 7.2 to wash out non-infected T. tachyzoites and an ethanol solution of antibiotic TM-531 was added to the medium at an appropriate concentration of antibiotic TM-531. The medium containing the protozoa and antibiotic TM-531 was incubated at 37° C. for 48 hours and then stained with Trypan Blue, and the number of T. tachyzoites per 100 macrophages was counted to determine the antitoxoplasma activity of antibiotic TM-531 as compared with the number of T. tachyzoites per 100 macrophages in the control medium containing no antibiotic TM-531.

macrophage = test: Toxic sign on macrophage by optical microscope; assay type: cell-based; conditions: mice macrophage culture with TM-531
Procedure: as §2

Eimeria tenella = test: Activity against Eimeria tenella in infected chicks; assay type: in vivo, Eimeria tenella in male chicks (white leghorn); conditions: 0.01% by weight in feed, 8 days after infection
Procedure: Male chicks (white leghorn species) immediately after hatching were fed with a mixed feed for chicks containing no anti-coccidium agent until the test started. On the 8th day of feeding, health conditions of the test chicks were observed and the body weight was determined thereby dividing the test chicks into three groups, each group comprising 10 chicks and having an equal distribution of body weight. The test group was fed with a mixed feed for chicks containing 0.01% by weight of antibiotic TM-531 and the infected control group and the healthy group were fed with the same mixed feed but containing no antibiotic TM-531. On the 48th hour of feeding, each of chicks of the test group and the infected control group was infected with 9×10^4 mature oocysts of Eimeria tenella by oral administration. Eight days after infection, body weight increase (%), mortality (%) and O.P.G. [The number of oocysts (×10^4) present in 1 g of the content of caecum] were determined, and faeces conditions were observed and compared with those of the healthy group to determine the activity of antibiotic TM-531 against Eimeria tenella.

Solubility = assay type: physicochemical
[13] = tested on: gram-positive and plant pathogenic microorganisms; test: Physiological properties: growth inhibitory activity; conditions: in words
protozoa = test: Physiological properties: activity on protozoa; conditions: protozoa as hog dysentery, coccidium, toxoplasma, trypanosome, malaria, etc.; in words
[14] = tested on: gram-negative bacteria and yeasts; test: Physiological properties: activity on gram-negative bacteria and yeasts; conditions: in words

For `COC1CCC(OC2CC(C3(C)CCC4(CC(O)C(C)C(C(C)/C=C(\C)C(=O)C(C)CC(C)C(=O)O)O4)O3)OC3(OC(C4OC(C)(O)C(C)CC4C)CC3C)C2C)OC1C` (centres unmarked) [TM-531], the “Minimum Inhibitory Concentration” value [1] was greater than 100 µg/mL, the “Minimum Inhibitory Concentration” value (Bacillus licheniformis) was 1.56 µg/mL and the “Minimum Inhibitory Concentration” value [2] was 1.56 µg/mL. For the same molecule, the “Minimum Inhibitory Concentration” value (Candida albicans) was greater than 100 µg/mL, the “Minimum Inhibitory Concentration” value (Corynebacterium xerosis) was 1.56 µg/mL and the “Minimum Inhibitory Concentration” value [3] was greater than 100 µg/mL. For the same molecule, the “Minimum Inhibitory Concentration” value (Micrococcus luteus NIHJ) was 3.13 µg/mL, the “Minimum Inhibitory Concentration” value [4] was greater than 100 µg/mL and the “Minimum Inhibitory Concentration” value (Proteus vulgaris HX 19) was greater than 100 µg/mL. For the same molecule, the “Minimum Inhibitory Concentration” value [5] was greater than 100 µg/mL, the “Minimum Inhibitory Concentration” value (Saccharomyces cerevisiae) was greater than 100 µg/mL and the “Minimum Inhibitory Concentration” value [6] was 1.56 µg/mL. The “Minimum Inhibitory Concentration” value [7] was 6.25 µg/mL, the “Minimum Inhibitory Concentration” value [8] was 3.13 µg/mL and the “Minimum Inhibitory Concentration” value [9] was 3.13 µg/mL. The “Minimum Inhibitory Concentration” value [10] was 3.13 µg/mL, the “Minimum Inhibitory Concentration” value [11] was 6.25 µg/mL and the “Minimum Inhibitory Concentration” value (Trichophyton asteroides) was greater than 100 µg/mL. The “Colony Diameter, TM-531 Containing Medium” value (from here on “Colony Diameter”) (Glomerella cingulata) was 13.4 mm, the “Colony Diameter” value (Piricularia sasakii) was 63.0 mm and the “Colony Diameter” value (Gibberella fujikuroi) was 20.2 mm. The “Colony Diameter” value (Botrytis cinerea) was 46.7 mm, the “Colony Diameter” value [12] was 15.4 mm and the “Percent Macrophage infected with T. tachyzoites, 1 ~ 5/cell” value (Toxoplasma tachyzoites; T. tachyzoites 1 ~ 5/cell, control medium 30.8) was 0%. The “Percent Macrophage infected with T. tachyzoites, ≥6/cell” value (Toxoplasma tachyzoites; T. tachyzoites ≥6/cell, control medium 22.4) was 0%, the “toxic sign on macrophage” value (macrophage) was “no toxic sign on macrophage” and the “O.P.G. (number of oocysts present in 1 g of the content of caecum)” value (Eimeria tenella; infected control 17.3, healthy control 0) was 0 × 10^4. The Mortality (Eimeria tenella; infected control 60, healthy control 0) was 0%, the “Body Weight Increase” value (Eimeria tenella; infected control 77.0, healthy control 100.0) was 105.1% and the “Faeces Conditions” value (Eimeria tenella; infected control loose passage 100%, hemafecial 80%) was “Normal”. The “Solubility in organic solvents” value (Solubility; methanol, ethanol, acetone, ethyl acetate, diethyl ether, benzene, chloroform, hexane and petroleum ether) was “soluble in methanol, ethanol, acetone, ethyl acetate, diethyl ether, benzene, chloroform, hexane and petroleum ether”, the Solubility in water (Solubility; water) was “insoluble in water” and the growth inhibitory activity [13] was “exhibits growth inhibitory activity”. For the same molecule, the effect on protozoa (protozoa) was “effective on protozoa” and the “effect on gram-negative bacteria and yeasts” value [14] was “ineffective on gram-negative bacteria and yeasts”.
